Assay results as given in patent US5672715A, “Herbicidal substituted 3-aryl-pyrazoles” (Monsanto Company, priority 1995, dated 1997).

Columns and labels:
Assay type in all cases: in vivo
Conditions in all cases: 0.25 lb/A
[1] = tested on: Barnyardgrass; test: pre-emergence herbicide test
Summary of the method: (§1)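 Known amounts of active ingredient went into the cover soil over seeds sown in pans, either before or after the layer was spread. An initial 1/4 inch overhead irrigation was given in some cases; otherwise pans were subirrigated. Rating was % inhibition at ~14 days.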

[2] = tested on: Bedstraw Catchweed; test: pre-emergence herbicide test
Summary of the method: as §1

[3] = tested on: Birdseye Speedwell; test: pre-emergence herbicide test
Summary of the method: as §1

[4] = tested on: Blackgrass; test: pre-emergence herbicide test
Summary of the method: as §1

[5] = tested on: Cocklebur; test: pre-emergence herbicide test
Summary of the method: as §1

[6] = tested on: Common Chickweed; test: pre-emergence herbicide test
Summary of the method: as §1

[7] = tested on: Corn; test: pre-emergence herbicide test
Summary of the method: as §1

[8] = tested on: Downy Brome; test: pre-emergence herbicide test
Summary of the method: as §1

[9] = tested on: Giant Foxtail; test: pre-emergence herbicide test
Summary of the method: as §1

[10] = tested on: Green Foxtail; test: pre-emergence herbicide test
Summary of the method: as §1

[11] = tested on: Morning Glory; test: pre-emergence herbicide test
Summary of the method: as §1

[12] = tested on: Rape; test: pre-emergence herbicide test
Summary of the method: as §1

[13] = tested on: Seedling Johnsongrass; test: pre-emergence herbicide test
Summary of the method: as §1

[14] = tested on: Soybean; test: pre-emergence herbicide test
Summary of the method: as §1

[15] = tested on: Velvetleaf; test: pre-emergence herbicide test
Summary of the method: as §1

[16] = tested on: Wheat; test: pre-emergence herbicide test
Summary of the method: as §1

[17] = tested on: Wild Oats; test: pre-emergence herbicide test
Summary of the method: as §1

[18] = tested on: Barnyardgrass; test: post-emergence herbicide test
Summary of the method: (§2)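 Greenhouse plants grown from seeds in topsoil were treated two to three weeks after sowing with a spray solution or suspension of test chemical with about 0.4% by volume emulsifier, applied at 1870 L/Ha and 170.3 kPa. Percent inhibition per species was the endpoint.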

[19] = tested on: Bedstraw Catchweed; test: post-emergence herbicide test
Summary of the method: as §2

[20] = tested on: Birdseye Speedwell; test: post-emergence herbicide test
Summary of the method: as §2

[21] = tested on: Blackgrass; test: post-emergence herbicide test
Summary of the method: as §2

[22] = tested on: Cocklebur; test: post-emergence herbicide test
Summary of the method: as §2

[23] = tested on: Common Chickweed; test: post-emergence herbicide test
Summary of the method: as §2

[24] = tested on: Corn; test: post-emergence herbicide test
Summary of the method: as §2

[25] = tested on: Downy Brome; test: post-emergence herbicide test
Summary of the method: as §2

[26] = tested on: Giant Foxtail; test: post-emergence herbicide test
Summary of the method: as §2

[27] = tested on: Green Foxtail; test: post-emergence herbicide test
Summary of the method: as §2

[28] = tested on: Morning Glory; test: post-emergence herbicide test
Summary of the method: as §2

[29] = tested on: Rape; test: post-emergence herbicide test
Summary of the method: as §2

[30] = tested on: Seedling Johnsongrass; test: post-emergence herbicide test
Summary of the method: as §2

[31] = tested on: Soybean; test: post-emergence herbicide test
Summary of the method: as §2

[32] = tested on: Velvetleaf; test: post-emergence herbicide test
Summary of the method: as §2

[33] = tested on: Wheat; test: post-emergence herbicide test
Summary of the method: as §2

[34] = tested on: Wild Oats; test: post-emergence herbicide test
Summary of the method: as §2

[35] = pre-emergence, read-out: % plant inhibition
[36] = post-emergence, read-out: % plant inhibition

Compound: Cc1c(-c2cc(C(=O)OCCC(C)C)c(Cl)cc2F)nn(C)c1C(F)(F)F [Compound 55]
- % plant inhibition [1]: 30%
- % plant inhibition [2]: 85%
- % plant inhibition [3]: 100%
- % plant inhibition [4]: 60%
- % plant inhibition [5]: 30%
- % plant inhibition [6]: 75%
- % plant inhibition [7]: 0%
- % plant inhibition [8]: 55%
- % plant inhibition [9]: 100%
- % plant inhibition [10]: 100%
- % plant inhibition [11]: 10%
- % plant inhibition [12]: 5%
- % plant inhibition [13]: 95%
- % plant inhibition [14]: 0%
- % plant inhibition [15]: 85%
- % plant inhibition [16]: 0%
- % plant inhibition [17]: 35%
- % plant inhibition [18]: 45%
- % plant inhibition [19]: 75%
- % plant inhibition [20]: 95%
- % plant inhibition [21]: 20%
- % plant inhibition [22]: 90%
- % plant inhibition [23]: 70%
- % plant inhibition [24]: 20%
- % plant inhibition [25]: 20%
- % plant inhibition [26]: 35%
- % plant inhibition [27]: 65%
- % plant inhibition [28]: 85%
- % plant inhibition [29]: 15%
- % plant inhibition [30]: 70%
- % plant inhibition [31]: 20%
- % plant inhibition [32]: 99%
- % plant inhibition [33]: 10%
- % plant inhibition [34]: 30%

Compound: CCC(CC)COC(=O)c1cc(-c2nn(C)c(C(F)(F)F)c2C)c(F)cc1Cl [Compound 46]
- inhibition at 280.212 g/ha ([1]; Echinochloa crus-galli, pre-emergence, read-out: % plant inhibition): 0%
- inhibition at 280.212 g/ha ([2]; Galium aparine, pre-emergence, read-out: % plant inhibition): 75%
- inhibition at 280.212 g/ha [3, 35]: 80%
- inhibition at 280.212 g/ha ([4]; Alopecurus myosuroides, pre-emergence, read-out: % plant inhibition): 10%
- inhibition at 280.212 g/ha ([5]; Xanthium strumarium, pre-emergence, read-out: % plant inhibition): 10%
- inhibition at 280.212 g/ha [6, 35]: 90%
- inhibition at 280.212 g/ha ([7]; Zea mays, pre-emergence, read-out: % plant inhibition): 0%
- inhibition at 280.212 g/ha ([8]; Bromus tectorum, pre-emergence, read-out: % plant inhibition): 15%
- inhibition at 280.212 g/ha ([9]; Setaria faberi, pre-emergence, read-out: % plant inhibition): 40%
- inhibition at 280.212 g/ha ([10]; Setaria viridis, pre-emergence, read-out: % plant inhibition): 80%
- inhibition at 280.212 g/ha ([11]; Ipomoea, pre-emergence, read-out: % plant inhibition): 20%
- inhibition at 280.212 g/ha [12, 35]: 5%
- inhibition at 280.212 g/ha ([13]; Sorghum halepense, pre-emergence, read-out: % plant inhibition): 75%
- inhibition at 280.212 g/ha ([14]; Glycine max, pre-emergence, read-out: % plant inhibition): 0%
- inhibition at 280.212 g/ha ([15]; Abutilon theophrasti, pre-emergence, read-out: % plant inhibition): 80%
- inhibition at 280.212 g/ha ([16]; Triticum aestivum, pre-emergence, read-out: % plant inhibition): 0%
- inhibition at 280.212 g/ha ([17]; Avena fatua, pre-emergence, read-out: % plant inhibition): 5%
- inhibition at 280.212 g/ha ([18]; Echinochloa crus-galli, post-emergence, read-out: % plant inhibition): 50%
- inhibition at 280.212 g/ha ([19]; Galium aparine, post-emergence, read-out: % plant inhibition): 100%
- inhibition at 280.212 g/ha [20, 36]: 100%
- inhibition at 280.212 g/ha ([21]; Alopecurus myosuroides, post-emergence, read-out: % plant inhibition): 20%
- inhibition at 280.212 g/ha ([22]; Xanthium strumarium, post-emergence, read-out: % plant inhibition): 85%
- inhibition at 280.212 g/ha [23, 36]: 95%
- inhibition at 280.212 g/ha ([24]; Zea mays, post-emergence, read-out: % plant inhibition): 15%
- inhibition at 280.212 g/ha ([25]; Bromus tectorum, post-emergence, read-out: % plant inhibition): 15%
- inhibition at 280.212 g/ha ([26]; Setaria faberi, post-emergence, read-out: % plant inhibition): 0%
- inhibition at 280.212 g/ha ([27]; Setaria viridis, post-emergence, read-out: % plant inhibition): 70%
- inhibition at 280.212 g/ha ([28]; Ipomoea, post-emergence, read-out: % plant inhibition): 70%
- inhibition at 280.212 g/ha [29, 36]: 45%
- inhibition at 280.212 g/ha ([30]; Sorghum halepense, post-emergence, read-out: % plant inhibition): 25%
- inhibition at 280.212 g/ha ([31]; Glycine max, post-emergence, read-out: % plant inhibition): 15%
- inhibition at 280.212 g/ha ([32]; Abutilon theophrasti, post-emergence, read-out: % plant inhibition): 98%
- inhibition at 280.212 g/ha ([33]; Triticum aestivum, post-emergence, read-out: % plant inhibition): 15%
- inhibition at 280.212 g/ha ([34]; Avena fatua, post-emergence, read-out: % plant inhibition): 20%
